From patent US20240350456A1, “COMPOSITIONS AND METHODS FOR DIAGNOSING AND TREATING INFLAMMATORY CONDITIONS” (RUTGERS, THE STATE UNIVERSITY OF NEW JERSEY, priority 2023, published 2024)
Entries after “also recorded” stand apart in the source; their conditions may differ.

Key:
[1] = system: human-derived Caco-2 cells; assay: In vitro transwell screening in Caco-2 cells, barrier disrupted by Clostridium difficile toxin (TEER and FITC-dextran permeability); assay type: cell-based; conditions: applied in the basolateral compartment, TOX
[2] = system: leaky gut mouse model (DSS colitis); assay: DSS (3%) leaky gut colitis mouse model, metabolites i.p.; assay type: in vivo
Excerpt: A moderate amount of DSS (3%) creates a leaky gut model.
FIG. 23A, Analysis of plasma ovalbumin levels after oral ovalbumin gavage in mice treated with exogenous MNA or PBS. […] Analysis of fecal lipocalin levels in mice treated with PBS or MNA with or without DSS. […] Representative histology sections of mice treated with PBS or MNA with or without DSS. FIG. 23D, quantification of mouse histology sections scored for colitis index.
FIG. 24A, Analysis of zonula occludens (Tjp1) and occluding (Ocln) mRNA levels after treatment with PBS or MNA with or without DSS. FIG. 24B, Western blot analysis and quantification of Ocln protein levels after treatment with PBS or MNA with or without DSS. FIG. 24C, Quantified levels of occluding in the ileum (top) and colon (bottom) using immunofluorescence antibody staining.
Administration of DSS induces experimental colitis and disrupts gut barrier in vivo in animal models.
Exogenous MNA administration was assessed by plasma ovalbumin levels after oral ovalbumin gavage—an accepted method to determine permeability of the gut paracellular pathway. […] (FIG. 23B) Histology sections of mice treated with or without DSS and PBS or MNA were also obtained. […] Sections from several mice were also examined by a blinded observer and scored for colitis index.
(FIG. 24B) Using immunofluoresce antibody staining, quantified levels of occludin in the ileum and colon were also analyzed.

[3] = system: C57BL/6 mice with DSS-induced mild colitis; assay: DSS induced mild colitis treatment with LGG metabolites (2.5% DSS); assay type: in vivo, mouse; conditions: metabolite i.p. twice
Experimental: FIG. 13A-13M. IPA requires Ocln to alleviate LPS-induced leaky epithelium. FIG. 13A, experimental design. Organoids were derived from tamoxifen-inducible, intestine-specific Ocln-knockout (KO) mice generated by crossing a floxed Ocln^fl/fl with Villin-CreERT2 mice. FIG. 13B, Representative images and FIG. 13C, quantitative analysis of permeability assay. LPS was added to CCM media (basolateral side) with and without IPA […] and IAM (200 μM) (n=3 mice). *** P<0.001, compared with WT control, †P<0.05 compared with KO-control. FIG. 13D, Representative images of immunofluorescent staining of Ocln in WT control and Ocln KO conventional mice, L=lumen. MNA improves but ASA exacerbates dextran sodium sulfate (DSS)-induced leaky gut. FIG. 13E, experimental design, evaluation in vivo of metabolites (Met). Methylnicotinamide (MNA. […]) and L-argininosuccinate (ASA. 3.6 mg/kg) were administered (i.p.) twice 1-day before and 3 days after DSS treatment p.o. 4 kDa fluorescein isothiocyanate (FITC)-dextran was gavaged 4 h before sacrifice. FIG. 13F, body weight of DSS-treated mice with and without metabolites, FIG. 13G, representative images of Ocln-stained colon sections (green; left panel) and ECad (red; middle). Merged images (yellow; right panel) depict Ocln location in TJ of MNA-treated but not in DSS-only and ASA-treated colon (arrows). Quantitative fluorescent intensity of Ocln (FIG. 13H) and ECad (FIG. 13I) in the TJ, relative to DSS only controls. FIG. 13J, DSS scoring. FIG. 13K, representative H&E images of DSS, DSS+ MNA and DSS+ASA colon sections. FIG. 13L, In vivo permeability as determined by fluorescent intensity of FITC in serum. FIG. 13M, Serum level of interleukin-6.
DSS induced mild colitis treatment with LGG metabolites. To assess in vivo impact of metabolites on gut barrier function, conventional C57BL/6 mice (8 weeks of age) were administered with 2.5% dextran sodium sulfate (DSS) in drinking water to induce mild colitis. Animals were intraperitoneal injected with either PBS vehicle, 30 mg/kg methylnicotinamide chloride, or 3.6 mg/kg argininosuccinic acid dissolved in sterile PBS at Day-1 and Day 4 of the experiment. Body weight was recorded daily. At Day 7, 4 hours before sacrifice and collection of blood, animals were gavaged with 600 mg/kg with 4 kDa FITC-dextran. Blood was collected in 5% EDTA and subsequently centrifuged at 3000 g for 5 minutes for plasma collection. FITC readings were collected by diluting 25 μl of plasma in 75 μl of PBS and analyzed using a Glomax (Promega, GMMTE9032) with Ex490/Em510-570 filter cube module. Serum concentration of interleukin-6 (Cat. No. Biolegend 431304) was also determined. Ileum and colon sections were collected, fixed in 4% paraformaldehyde, processed for embedding in paraffin wax. Pathohistology of intestine was observed by routine H&E staining.

[4] = system: Caco2 BBE monolayer; assay: TEER of confluent Caco2 BBE monolayer disrupted by luminal DSS, with MNA; assay type: cell-based, human; conditions: low dose
Experimental: MNA was applied from Day-5 at different concentrations on the luminal (L) or basolateral (BL) compartments. The monolayer was disrupted by 3% DSS in the luminal side on days 5-8.
Caco2 were provided with MNA at day 0 either luminally (L, mimics oral) or basolaterally (BL, mimics intra-peritoneal) (FIG. 17). Then DSS was added to lumen to disrupt gut barrier in all treatments except control (blue circles).

| SMILES | TEER, indole metabolites [1] | body weight loss and recovery in DSS leaky gut model ([2]; 3% DSS, i.p. every other day, listed as MNA) | tissue damage in histology sections ([2]; DSS-treated animals) | fecal lipocalin levels ([2]; MNA-DSS vs PBS-DSS) | body weight when injected alone ([2]; i.p. every other day, no DSS) | barrier function (plasma ovalbumin after oral ovalbumin gavage), increase vs PBS treated mice ([2]; i.p. injection) | colitis score (colitis index, blinded observer) ([2]; with DSS) | mRNA levels of Tjp1 and Ocln in the ileum ([2]; with DSS) | E-cad abundance and localization in colonic epithelial cells [3] | Ocln expression in colonic epithelium [3] | pathology score (epithelial cell disruption and immune cell infiltration) [3] | DSS-induced leaky gut (overall) ([3]; listed as MNA) | serum IL-6 level ([3]; listed as MNA) | TEER after DSS barrier disruption [4] |
| --- | --- | --- | --- | --- | --- | --- | --- | --- | --- | --- | --- | --- | --- | --- |
| NC(=O)Cc1c[nH]c2ccccc12 [Indole-3-acetamide, indole-3-acetamide] | more effective when applied in this compartment than in the luminal | – | – | – | – | – | – | – | – | – | – | – | – | – |
| C[n+]1cccc(C(N)=O)c1 [Methylnicotinamide, 1-methynicotinamide] | – | dampened then accelerated the recovery of body weight; also recorded: robust and faster recovery | alleviated | reduced fecal lipocalin | no deleterious effect on body weight | 2 fold | protected the tissue from damage even with DSS | increasing the mRNA levels to normal | significantly increased | significantly elevated Ocln expression | improved pathology score | sealed the leaky gut; also recorded: improves | decreased; also recorded: reduced serum proinflammatory IL-6 levels | prevented barrier disruption |
